Data as given in patent US20230202989A1, “COMPOUNDS” (JANSSEN PHARMACEUTICA NV, priority 2020, published 2023).
Like-named read-outs stand apart in the source and are kept apart here.

Tests used:
IL-1β = test: PBMC assay: inhibition of IL-1β release after LPS stimulation (MSD); assay type: cell-based; details: human PBMCs, read-out: IL1β IC50
Description: Peripheral venous blood s collected from health individuals and human peripheral blood mononuclear cells (PBMCs) ere isolated from blood by Ficoll Histopaque (Sigma-Aldrich, A0561) density gradient centrifugation. After isolation, PBMCs were stored in liquid nitrogen for later use. Upon thawing, PBMC cell viability was determined in growth medium (RPMI media supplemented with 10% fetal bovine serum, 1% Pen-Strep and 1% L-glutamine). […] PBMCs were added at a density of 7.5×10^4 cells per well and incubated for 30 min in a 5% CO2 incubator at 37° C. LPS stimulation was performed by addition of 100 ng/ml LPS (final concentration, Invivogen, tlrl-smlps) for 6 hrs followed by collection of cellular supernatant and the analysis of IL-1β (μM) and TNF cytokines levels (μM) via MSD technology according to manufacturers' guidelines (MSD, K151A0H).
(§1) The IC50 values (for IL-1β) and EC50 values (TNF) were obtained on compounds of the invention/examples, and are depicted in the following table: […]

TNF = test: PBMC assay: TNF cytokine levels after LPS stimulation (MSD); assay type: cell-based; details: human PBMCs, 100 ng/ml LPS for 6 hrs
Description: Peripheral venous blood s collected from health individuals and human peripheral blood mononuclear cells (PBMCs) ere isolated from blood by Ficoll Histopaque (Sigma-Aldrich, A0561) density gradient centrifugation. After isolation, PBMCs were stored in liquid nitrogen for later use. Upon thawing, PBMC cell viability was determined in growth medium (RPMI media supplemented with 10% fetal bovine serum, 1% Pen-Strep and 1% L-glutamine). Compounds were spotted in a 1:3 serial dilution in DMSO and diluted to the final concentration in 30 μl medium in 96 well plates (Falcon, 353072). PBMCs were added at a density of 7.5×10^4 cells per well and incubated for 30 min in a 5% CO2 incubator at 37° C. LPS stimulation was performed by addition of 100 ng/ml LPS (final concentration, Invivogen, tlrl-smlps) for 6 hrs followed by collection of cellular supernatant and the analysis of IL-1β (μM) and TNF cytokines levels (μM) via MSD technology according to manufacturers' guidelines (MSD, K151A0H).
as §1

[1] = Homo sapiens, PBMC, 6 h, 100 ng/ml LPS for 6 hrs, MSD, 96 well plates
[2] = Homo sapiens, PBMC, LPS stimulation, 384 well plate

| IC50 (IL-1β; [1]) [nM] | EC50 (TNF; Homo sapiens, PBMC, 6 h) [nM] | SMILES | further results |
| --- | --- | --- | --- |
| 2130 | > 20000 | CC(C)c1nn(CC(=O)N[C@H]2C[C@@](O)(C(F)(F)F)C2)c(=O)c2ccc(C(F)(F)F)cc12 [Final Cpd X119] | – |
| 668 | > 20000 | CC(C)c1nn(CC(=O)Nc2ccc3nc(C(F)(F)F)cn3c2)c(=O)c2ccc(C(F)(F)F)cc12 [Final Cpd X64, 2-(4-isopropyl-1-oxo-6-(trifluoromethyl)phthalazin-2(1H)-yl)-N-(2-(trifluoromethyl)imidazo[1,2-a]pyridin-6-yl)acetamide] | – |
| > 20000 | > 20000 | CC(C)c1nn(CC(=O)Nc2ccc(C(F)F)nn2)c(=O)c2ccc(C(F)(F)F)cc12 [Final Cpd X176] | – |
| 170 | > 10000 | CC(C)c1ccc2c(=O)n(CC(=O)Nc3ccncn3)nc(C(C)C)c2c1 [Final Cpd 35] | – |
| 585 | > 20000 | CC(C)c1nn(CC(=O)N[C@H]2CCCN3CCC[C@@H]23)c(=O)c2ccc(C(F)(F)F)cc12 [Final Cpd X60] | – |
| 1860 | > 20000 | CC(C)c1nn(CC(=O)Nc2ccc3c(c2)nnn3C)c(=O)c2ccc(C(F)(F)F)cc12 [Final Cpd X113] | – |
| 216 | > 20000 | CO[C@]1(C)C[C@H](NC(=O)Cn2nc(C(C)C)c3cc(C(F)(F)F)ccc3c2=O)C1 [Final Cpd X29, 2-(4-isopropyl-1-oxo-6-(trifluoromethyl)phthalazin-2(1H)-yl)-N-((1s,3s)-3-methoxy-3-methylcyclobutyl)acetamide] | – |
| 180 | 1080 | CC(C)c1nn(CC(=O)Nc2ccc3nncn3n2)c(=O)c2ccc(C3CCC3)cc12 [X-1012] | – |
| – | – | CC[C@]1(O[Si](C)(C)C(C)(C)C)C[C@@H](NC(=O)Cn2nc(C(C)C)c3cc(Br)ccc3c2=O)C1 [X-1089, 2-(6-bromo-4-isopropyl-1-oxophthalazin-2(1H)-yl)-N-((1r,3s)-3-((tert-butyldimethylsilyl)oxy)-3-ethylcyclobutyl)acetamide] | IC50 (IL-1β; PBMC, 100 ng/ml LPS for 6 hrs, MSD, 96 well plates): > 20000 nM; EC50 (TNF; PBMC): > 20000 nM |
| > 20000 | > 20000 | CC(C)c1nn(CC(=O)Nc2ccc3nncn3c2)c(=O)c2ccc(C(F)(F)F)c(C#N)c12 [Final Cpd X170] | – |
| 1260 | > 20000 | CC(C)c1nn(CC(=O)Nc2ccc3nncn3c2)c(=O)c2ccc(C(F)(F)C(F)(F)F)cc12 [X-1052] | – |
| 220 | > 20000 | CCc1ccc2c(=O)n(CC(=O)Nc3ccc4nncn4c3)nc(C(C)C)c2c1 [X-1073] | – |
| 7450 | > 20000 | CC(C)c1nn(CC(=O)Nc2cnn(C)c(=O)c2)c(=O)c2ccc(C(F)(F)F)cc12 [Final Cpd X151] | – |
| 45 | 2830 | CC(C)c1ccc2c(=O)n(CC(=O)Nc3ccc4nncn4n3)nc(C(C)C)c2c1 [X-1009] | – |
| 444 | > 20000 | Cc1cn2nc(NC(=O)Cn3nc(C(C)C)c4cc(C(F)(F)F)ccc4c3=O)ccc2n1 [Final Cpd X53] | – |
| – | > 10000 | CCc1nn(CC(=O)Nc2ccncn2)c(=O)c2ccc(C(F)F)cc12 [Final Cpd 16] | IC50 (IL-1β; [2]): 920 nM |
| 141 | > 20000 | CC(C)c1nn(CC(=O)Nc2ccc(=O)n(C)n2)c(=O)c2ccc(Br)cc12 [X-1036] | – |
| > 20000 | > 20000 | CC(C)c1nn(CC(=O)Nc2ccc3nn(C)nc3c2)c(=O)c2ccc(C(F)(F)F)cc12 [Final Cpd X169] | – |
| 2940 | > 20000 | CC(C)c1nn(CC(=O)Nc2ccn3ccnc3n2)c(=O)c2ccc(C(F)(F)F)cc12 [Final Cpd X127] | – |
| 818 | > 20000 | CC(O)c1nn(CC(=O)N[C@H]2C[C@@](C)(O)C2)c(=O)c2ccc(C(F)(F)F)cc12 (stereo partly drawn) [Final Cpd X75] | – |
| 3180 | > 20000 | CC(C)c1nn(CC(=O)Nc2ccnnc2)c(=O)c2ccc(C(F)(F)C(F)(F)F)cc12 [X-1053] | – |
| 422 | > 20000 | CC(C)c1nn(CC(=O)Nc2ccc3nncn3c2)c(=O)c2ccc(N(C)C)cc12 [X-1046] | – |
| > 20000 | > 20000 | CC(C)c1nn(CC(=O)Nc2ccc3c(c2)CCN3C(C)C)c(=O)c2ccc(C(F)(F)F)cc12 [Final Cpd X173] | – |
| 2090 | > 20000 | CO[C@H]1C[C@@H](NC(=O)Cn2nc(C(C)C)c3cc(C(F)(F)F)ccc3c2=O)C1 [Final Cpd X116] | – |

| IC50 (IL-1β; [1]) [nM] | EC50 (TNF; Homo sapiens, PBMC, 6 h) [nM] | SMILES | further results |
| --- | --- | --- | --- |
| 2760 | > 20000 | CC(C)c1nn(CC(=O)N[C@H]2CC[C@H]2O)c(=O)c2ccc(C(F)(F)F)cc12 (single isomer, unassigned) [Final Cpd X124] | – |
| 5940 | > 20000 | CCN1CC[C@H](NC(=O)Cn2nc(C(C)C)c3cc(C(F)(F)F)ccc3c2=O)[C@H](O)C1 (single isomer, unassigned) [Final Cpd X147] | – |
| 866 | > 20000 | CC(C)c1nn(CC(=O)Nc2ncc3c(ncn3C)n2)c(=O)c2ccc(C(F)(F)F)cc12 [Final Cpd X80] | – |
| 287 | 12000 | CC(C)c1nn(CC(=O)Nc2ccncn2)c(=O)c2ccc(C3CC3)cc12 [Final Cpd 23] | – |
| 15300 | > 20000 | CC(=O)N1C[C@@H](O)C[C@@H](NC(=O)Cn2nc(C(C)C)c3cc(C(F)(F)F)ccc3c2=O)C1 (single isomer, unassigned) [Final Cpd X164] | – |
| – | – | O=C(Cn1nc(CCC(F)(F)F)c2cc(C(F)(F)F)ccc2c1=O)Nc1ccc2nncn2c1 [Final Cpd X76] | IC50 (IL-1β; 100 ng/ml LPS for 6 hrs, MSD, 96 well plates): 829 nM; EC50 (TNF): > 20000 nM |
| 1740 | > 20000 | CC(C)c1nn(CC(=O)N[C@H]2C[C@@](C)(O)C2)c(=O)c2ccc(C#N)cc12 [X-1060] | – |
| 679 | > 20000 | CC(C)c1nn(CC(=O)N[C@H]2C[C@@H](O)C2)c(=O)c2ccc(C(F)(F)F)cc12 [Final Cpd X67] | – |
| 316 | > 20000 | CCN1C[C@H](F)C[C@@H](NC(=O)Cn2nc(C(C)C)c3cc(C(F)(F)F)ccc3c2=O)C1 [Final Cpd X37] | – |
| 3080 | > 20000 | CC(C)c1nn(CC(=O)N[C@@H]2C[C@H](O)CN(C)C2)c(=O)c2ccc(C(F)(F)F)cc12 (single isomer, unassigned) [Final Cpd X130] | – |
| 1330 | > 20000 | CC(C)c1nn(CC(=O)N[C@H]2C[C@@](C)(O)C2)c(=O)c2ccc(OC(F)(F)F)cc12 [X-1041] | – |
| > 20000 | > 20000 | CCN1CCc2cc(NC(=O)Cn3nc(C(C)C)c4cc(C(F)(F)F)ccc4c3=O)ccc21 [Final Cpd X171] | – |
| 185 | > 20000 | CC(C)c1nn(CC(=O)Nc2ccc3nncn3c2)c(=O)c2ccc(C(F)(F)F)c(F)c12 [Final Cpd X26] | – |
| 9990 | > 20000 | COC1(c2nn(CC(=O)Nc3ccc4nncn4c3)c(=O)c3ccc(C(F)(F)F)cc23)CC1 [Final Cpd X158] | – |
| 2130 | > 20000 | COC(C)c1nn(CC(=O)Nc2ccnnc2)c(=O)c2ccc(Br)cc12 (stereo not drawn) [X-1015] | – |
| 2420 | > 20000 | COC(C)(C)c1ccc2c(=O)n(CC(=O)Nc3ccncn3)nc(C(C)C)c2c1 [X-1059] | – |
| 3860 | > 20000 | CC(C)c1nn(CC(=O)Nc2ccc3nn(C)cc3c2)c(=O)c2ccc(C(F)(F)F)cc12 [Final Cpd X137] | – |
| 1610 | 14000 | COC(C)c1ccc2c(=O)n(CC(=O)Nc3ccncn3)nc(C(C)C)c2c1 (stereo not drawn) [X-1056] | – |
| – | > 10000 | CCc1ccc2c(=O)n(CC(=O)Nc3ccncn3)nc(CC)c2c1 [Final Cpd 7] | IC50 (IL-1β; [2]): 700 nM |
| 3010 | > 20000 | CC(C)c1nn(CC(=O)Nc2ccc3cnn(C(F)F)c3c2)c(=O)c2ccc(Br)cc12 [X-1034] | – |
| 304 | > 20000 | C[C@]1(O)C[C@@H](NC(=O)Cn2nc(C(F)F)c3cc(C(F)(F)F)ccc3c2=O)C1 [Final Cpd X36] | – |
| 66 | > 20000 | CCN1CC[C@@H](O)[C@@H](NC(=O)Cn2nc(C(C)C)c3cc(C(F)(F)F)ccc3c2=O)C1 [Final Cpd X6, N-((3S,4R)-1-ethyl-4-hydroxypiperidin-3-yl)-2-(4-isopropyl-1-oxo-6-(trifluoromethyl)phthalazin-2(1H)-yl)acetamide] | – |
| 255 | > 20000 | O=C(Cn1nc(C2CC2)c2cc(C(F)(F)F)ccc2c1=O)Nc1ccc2nncn2n1 [Final Cpd X34] | – |
| 140 | > 10000 | CCc1nn(CC(=O)N[C@H]2C[C@@](C)(O)C2)c(=O)c2ccc(C(F)(F)F)cc12 [Final Cpd 19] | – |
